The values that follow are results of earlier work, collected in patent US20120076863A1, “NANOPARTICULATE STABILIZED ANTI-HYPERTENSIVE COMPOSITIONS” (Elan Pharma International Ltd., priority 2005, published 2012).

Structures can show the parent of a compound that is named as a salt.

For data set [1] the following is noted: active metabolite of temocapril.

`CCOC(=O)[C@H](CCc1ccccc1)N[C@H]1CS[C@H](c2cccs2)CN(CC(=O)O)C1=O` [Temocapril hydrochloride, α-{(2S,6R)-6-[(1S)-1-ethoxy-carbonyl-3-phenyl-propyl]amino-5-oxo-2-(2-thienyl)perhydro-1,4-thiazepin-4yl}acetic acid hydrochloride]: the solubility in water entry is recorded as “only slightly soluble”.

With `O=C(O)CN1C[C@@H](c2cccs2)SC[C@H](N[C@@H](CCc2ccccc2)C(=O)O)C1=O` [temocaprilat], the excretion route entry in data set [1] was “excreted predominantly in bile”.
